We go through one compound from PMC7535926, “Serine phosphorylation regulates the P-type potassium pump KdpFABC” (eLife, 2020).

The assay addresses T1, KdpFABC (WT) (Escherichia coli, UniProt P03960).
T1 construct: gene kdpB; full-length kdpFABC operon on plasmid pSD107 (native promoter), 8x His tag at C-terminus of KdpC; expressed in E. coli TK2499; purified in decyl maltoside; KdpB Ser162 phosphate removed with lambda protein phosphatase; Potassium-transporting ATPase KdpC subunit; Potassium-transporting ATPase KdpF subunit
Nature of the assay: coupled-enzyme ATPase assay (pyruvate kinase / lactate dehydrogenase). Type of assay: biochemical.

The structures appear in SMILES notation. pIC50: −log10 of the molar value.

T1 sequence (P03960 whole entry): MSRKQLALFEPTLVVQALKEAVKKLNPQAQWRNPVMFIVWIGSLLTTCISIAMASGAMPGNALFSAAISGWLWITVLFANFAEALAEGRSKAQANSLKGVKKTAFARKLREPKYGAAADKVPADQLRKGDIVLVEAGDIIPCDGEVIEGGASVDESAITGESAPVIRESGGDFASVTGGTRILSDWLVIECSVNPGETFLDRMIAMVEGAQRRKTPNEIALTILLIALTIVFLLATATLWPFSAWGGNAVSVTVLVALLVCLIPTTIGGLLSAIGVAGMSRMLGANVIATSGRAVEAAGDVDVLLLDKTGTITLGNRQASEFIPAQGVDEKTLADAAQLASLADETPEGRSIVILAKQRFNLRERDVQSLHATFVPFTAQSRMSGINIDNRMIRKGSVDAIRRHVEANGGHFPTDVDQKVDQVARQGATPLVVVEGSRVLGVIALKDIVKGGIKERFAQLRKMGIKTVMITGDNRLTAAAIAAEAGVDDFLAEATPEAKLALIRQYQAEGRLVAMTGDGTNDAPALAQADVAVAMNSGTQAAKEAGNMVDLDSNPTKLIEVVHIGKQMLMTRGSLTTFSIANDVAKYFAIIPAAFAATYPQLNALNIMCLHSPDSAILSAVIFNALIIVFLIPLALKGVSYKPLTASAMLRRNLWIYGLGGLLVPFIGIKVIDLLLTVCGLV
T1 sequence (P03959 whole entry partner): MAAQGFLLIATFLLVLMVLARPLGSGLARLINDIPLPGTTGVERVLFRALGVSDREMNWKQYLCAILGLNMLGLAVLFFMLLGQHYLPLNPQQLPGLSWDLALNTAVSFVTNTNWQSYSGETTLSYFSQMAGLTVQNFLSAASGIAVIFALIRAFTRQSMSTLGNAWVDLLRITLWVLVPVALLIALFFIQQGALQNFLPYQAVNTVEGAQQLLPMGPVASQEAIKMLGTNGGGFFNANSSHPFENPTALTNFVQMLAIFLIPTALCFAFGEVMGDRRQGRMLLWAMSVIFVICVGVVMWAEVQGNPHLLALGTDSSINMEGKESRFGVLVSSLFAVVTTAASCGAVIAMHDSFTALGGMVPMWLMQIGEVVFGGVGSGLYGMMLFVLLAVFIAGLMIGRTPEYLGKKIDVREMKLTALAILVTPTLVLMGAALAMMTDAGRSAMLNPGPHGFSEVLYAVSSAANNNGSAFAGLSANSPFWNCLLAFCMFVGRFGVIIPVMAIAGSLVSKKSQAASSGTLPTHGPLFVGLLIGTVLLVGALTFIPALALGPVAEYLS
T1 sequence (P03961 whole entry partner): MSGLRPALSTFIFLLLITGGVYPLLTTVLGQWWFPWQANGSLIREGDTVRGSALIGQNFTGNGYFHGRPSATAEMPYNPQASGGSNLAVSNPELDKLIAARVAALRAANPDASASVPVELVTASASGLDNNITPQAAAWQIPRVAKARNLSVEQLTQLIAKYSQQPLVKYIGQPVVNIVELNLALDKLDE
T1 sequence (P36937 whole entry partner): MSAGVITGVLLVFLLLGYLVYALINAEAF

`[O]=[V]([OH])([OH])[OH]` [orthovanadate]: the pIC50 was 5.08.
